In assay [1] the target is T1, FL-SMARCA2 (full-length human SMARCA2 isoform 1) (Homo sapiens, UniProt P51531).
T1 construct: FLAG tag (YKDDDDK) (C); made in house; host or cells: Sf21 insect cells (baculovirus, pFastBacI)
In words: SMARCA2 ATPase activity assay (ADP-Glo, chicken mononucleosome substrate). In kind it is biochemical. As to conditions: ATP 250 uM. An excerpt: Molecular Biology: Full-length human SMARCA2 isoform 1 (P51531) transcript clone was amplified from a cDNA library incorporating an N-terminal HIS tag ([…]) fused directly to Ser2 of SMARCA2 and a C-FLAG tag (YKDDDDK) fused directly to Glu1590 of SMARCA2. The amplified gene was subcloned into pFastBacI (Life Technologies).
Protein Expression: Recombinant baculovirus were generated and protein over-expression was accomplished by infecting exponentially growing Sf21 insect cell culture at 1.24×10^6 cell/ml with an MOI of 0.1. Infections were carried out for 76 hours, harvested by centrifugation, and stored at −80° C. for purification.
Expressed full-length SMARCA2 was purified from cell paste by FLAG affinity chromatography followed by anion exchange chromatography. The protein was dialyzed into a storage buffer containing 25 mM HEPES, 300 mM KCl, 10% Glycerol, pH 7.9, 1 mM TCEP and 0.01% Tween-20. The purity of the protein was measured as 74% using micro-capillary based gel electrophoresis.
(ADP-Glo turns the ADP formed in a reaction into a luminescent signal.)

The target of assay [2] is FL-SMARCA4 (Homo sapiens, UniProt P51532). As to the kind of experiment: SMARCA4 ATPase activity assay (ADP-Glo, chicken mononucleosome substrate).
Chain of FL-SMARCA4 (P51532 whole entry): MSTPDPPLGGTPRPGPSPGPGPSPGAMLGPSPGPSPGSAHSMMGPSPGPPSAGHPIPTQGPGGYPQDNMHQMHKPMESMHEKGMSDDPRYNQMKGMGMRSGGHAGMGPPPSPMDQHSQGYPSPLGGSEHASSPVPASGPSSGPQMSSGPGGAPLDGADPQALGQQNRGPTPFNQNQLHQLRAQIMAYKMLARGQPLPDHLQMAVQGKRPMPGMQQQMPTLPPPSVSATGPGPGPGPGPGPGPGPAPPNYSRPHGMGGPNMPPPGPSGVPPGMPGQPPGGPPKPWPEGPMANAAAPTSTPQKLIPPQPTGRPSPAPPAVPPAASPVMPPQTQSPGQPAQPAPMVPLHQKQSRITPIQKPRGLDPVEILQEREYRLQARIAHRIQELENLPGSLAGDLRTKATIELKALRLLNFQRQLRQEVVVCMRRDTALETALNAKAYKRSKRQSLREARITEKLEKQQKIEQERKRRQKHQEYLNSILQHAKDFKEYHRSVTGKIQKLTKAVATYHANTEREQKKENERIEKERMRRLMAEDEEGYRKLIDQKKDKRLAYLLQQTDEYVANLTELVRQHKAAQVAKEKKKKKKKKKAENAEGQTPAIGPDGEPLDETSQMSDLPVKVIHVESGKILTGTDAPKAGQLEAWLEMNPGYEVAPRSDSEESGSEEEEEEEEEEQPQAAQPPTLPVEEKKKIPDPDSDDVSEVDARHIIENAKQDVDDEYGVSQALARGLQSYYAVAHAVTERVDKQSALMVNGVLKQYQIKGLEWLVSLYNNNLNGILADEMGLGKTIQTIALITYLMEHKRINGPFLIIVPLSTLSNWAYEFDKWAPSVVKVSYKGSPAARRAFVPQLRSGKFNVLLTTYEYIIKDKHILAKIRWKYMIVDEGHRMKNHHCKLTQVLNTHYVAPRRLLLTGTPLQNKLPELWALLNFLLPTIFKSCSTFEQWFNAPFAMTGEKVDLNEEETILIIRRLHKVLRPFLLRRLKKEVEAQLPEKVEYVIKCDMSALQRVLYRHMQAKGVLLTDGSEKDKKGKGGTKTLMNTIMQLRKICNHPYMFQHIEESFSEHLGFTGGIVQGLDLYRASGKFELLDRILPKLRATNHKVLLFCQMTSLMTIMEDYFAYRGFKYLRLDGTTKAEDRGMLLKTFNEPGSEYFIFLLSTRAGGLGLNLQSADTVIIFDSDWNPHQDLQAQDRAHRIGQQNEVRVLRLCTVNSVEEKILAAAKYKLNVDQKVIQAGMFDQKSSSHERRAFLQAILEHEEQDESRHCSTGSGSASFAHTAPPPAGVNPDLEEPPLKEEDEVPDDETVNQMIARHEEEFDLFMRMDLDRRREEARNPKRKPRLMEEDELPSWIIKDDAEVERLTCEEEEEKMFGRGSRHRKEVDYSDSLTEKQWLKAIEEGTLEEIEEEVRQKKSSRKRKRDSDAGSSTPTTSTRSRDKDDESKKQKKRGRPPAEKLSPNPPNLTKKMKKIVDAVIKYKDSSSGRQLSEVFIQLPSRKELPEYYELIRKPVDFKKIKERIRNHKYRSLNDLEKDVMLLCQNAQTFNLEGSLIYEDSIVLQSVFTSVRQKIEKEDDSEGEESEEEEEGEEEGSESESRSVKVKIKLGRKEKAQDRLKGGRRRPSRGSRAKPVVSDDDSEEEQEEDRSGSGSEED
Setting [3] is: Table 3.1, ATPase assay, enzyme 5 nM, chicken mononucleosome 10 nM, 30 min preincubation.
The mark [4] stands for this setting: FL-SMARCA4 IC50, Table 3.2, ATPase assay, enzyme 5 nM, ATP 250 uM, chicken mononucleosome 10 nM, 30 min preincubation.
[5] abbreviates: Table 3a.1, SMARCA2 5 nM, mononucleosome 10 nM.
Setting [6] is: FL-SMARCA4 IC50, Table 3a.2, SMARCA4 5 nM, ATP 250 uM, mononucleosome 10 nM.
Setting [7] is: Table 3b.1, SMARCA2 5 nM, mononucleosome 10 nM.
The mark [8] stands for this setting: FL-SMARCA4 IC50, Table 3b.2, SMARCA4 5 nM, ATP 250 uM, mononucleosome 10 nM.
[9] abbreviates: Table 3c.1, ATPase assay, enzyme 5 nM, chicken mononucleosome 10 nM, 30 min preincubation.
The mark [10] stands for this setting: FL-SMARCA4 IC>50, Table 3c.2, ATPase assay, enzyme 5 nM, ATP 250 uM, chicken mononucleosome 10 nM, 30 min preincubation.
Where [11] appears, read: Table 3d.1, ATPase assay, enzyme 5 nM, chicken mononucleosome 10 nM, 30 min preincubation, read-out: FL-SMARCA2 IC>50.

The structures appear in SMILES notation. Like-named read-outs stand apart in the source and are kept apart here.

T1 sequence (P51531 with tags, fused parts or gaps): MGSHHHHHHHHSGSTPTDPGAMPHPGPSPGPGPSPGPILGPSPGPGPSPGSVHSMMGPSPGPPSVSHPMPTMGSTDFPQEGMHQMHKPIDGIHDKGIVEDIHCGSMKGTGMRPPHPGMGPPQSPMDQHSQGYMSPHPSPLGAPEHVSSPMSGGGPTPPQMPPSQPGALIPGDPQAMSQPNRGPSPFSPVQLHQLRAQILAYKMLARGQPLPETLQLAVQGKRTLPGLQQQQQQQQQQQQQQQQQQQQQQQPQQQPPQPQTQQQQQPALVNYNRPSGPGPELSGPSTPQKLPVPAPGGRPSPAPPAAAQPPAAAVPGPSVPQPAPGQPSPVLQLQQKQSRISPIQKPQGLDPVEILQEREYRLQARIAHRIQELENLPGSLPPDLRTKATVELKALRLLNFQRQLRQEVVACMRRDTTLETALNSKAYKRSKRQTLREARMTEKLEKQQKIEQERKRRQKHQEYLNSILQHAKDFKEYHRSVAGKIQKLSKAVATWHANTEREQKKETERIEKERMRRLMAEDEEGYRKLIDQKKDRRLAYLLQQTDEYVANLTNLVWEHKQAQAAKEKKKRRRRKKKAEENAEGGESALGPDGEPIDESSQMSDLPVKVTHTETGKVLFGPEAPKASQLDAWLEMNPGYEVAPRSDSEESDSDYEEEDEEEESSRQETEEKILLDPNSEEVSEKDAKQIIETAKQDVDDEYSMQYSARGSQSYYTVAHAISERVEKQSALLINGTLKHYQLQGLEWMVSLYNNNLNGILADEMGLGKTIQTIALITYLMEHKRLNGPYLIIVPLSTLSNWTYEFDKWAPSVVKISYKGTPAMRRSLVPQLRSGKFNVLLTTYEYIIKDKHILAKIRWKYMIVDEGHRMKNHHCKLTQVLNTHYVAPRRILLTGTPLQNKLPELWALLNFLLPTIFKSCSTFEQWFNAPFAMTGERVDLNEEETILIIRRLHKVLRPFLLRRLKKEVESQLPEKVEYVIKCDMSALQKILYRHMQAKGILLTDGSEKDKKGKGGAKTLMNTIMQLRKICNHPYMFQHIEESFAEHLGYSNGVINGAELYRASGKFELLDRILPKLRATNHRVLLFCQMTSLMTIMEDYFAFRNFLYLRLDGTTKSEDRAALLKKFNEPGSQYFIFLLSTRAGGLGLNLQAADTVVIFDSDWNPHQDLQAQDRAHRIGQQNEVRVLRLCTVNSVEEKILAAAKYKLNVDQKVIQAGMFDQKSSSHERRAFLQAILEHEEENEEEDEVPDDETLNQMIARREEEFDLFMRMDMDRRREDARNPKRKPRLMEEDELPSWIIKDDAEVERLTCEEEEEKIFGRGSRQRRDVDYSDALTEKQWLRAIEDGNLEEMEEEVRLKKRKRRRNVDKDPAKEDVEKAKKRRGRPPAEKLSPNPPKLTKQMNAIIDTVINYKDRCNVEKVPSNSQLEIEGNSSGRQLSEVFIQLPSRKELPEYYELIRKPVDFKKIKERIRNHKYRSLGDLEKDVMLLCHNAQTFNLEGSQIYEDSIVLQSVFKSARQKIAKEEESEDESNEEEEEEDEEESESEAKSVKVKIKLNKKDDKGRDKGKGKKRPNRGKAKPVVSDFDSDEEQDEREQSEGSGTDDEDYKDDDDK

Regarding `CCn1cc(NC(=O)c2ccc(Cl)o2)ccc1=O` [Compound 20], the IC50 in assay [1] (setting [3]) and in assay [2] (setting [4]) was over 50 µM each time.

As to `CCn1cc(NC(=O)c2cn3ccccc3n2)ccc1=O` [Compound 20a], the IC50 in assay [1] (setting [5]) and in assay [2] (setting [6]) was over 50 µM in each case.

As for `N#Cc1ccc(C(=O)Nc2cc(F)c(=O)n(CCF)c2)cc1C#N` [Compound 20b], the figures for the IC50 in assay [1] (setting [7]) and in assay [2] (setting [8]) were 2.46 µM and 11.5 µM, respectively.

As for `O=C(Nc1cc(-c2cn[nH]c2)c(=O)n(CC(F)F)c1)c1sc(C(F)(F)F)cc1Cl` [Compound 20c], the IC50 in assay [1] (setting [9]) and in assay [2] (setting [10]) was over 50 µM each time.

Take `CCn1nc(NC(=O)c2cnc(Cl)s2)ccc1=O` [Compound 20d]: the IC50 in assay [1] (setting [11]) was 7.37 µM; in assay [2] (FL-SMARCA4 IC50) it was 28.9 µM.

As to `CCn1cc(NC(=O)c2cn3cccnc3n2)ccc1=O` [Compound 21a], the IC50 in assay [1] (setting [5]) and in assay [2] (setting [6]) was over 50 µM throughout.

On to `CN(C)C(=O)c1ccc(C(=O)Nc2cc(F)c(=O)n(CCF)c2)cc1` [Compound 21b], for which the IC50 in assay [1] (setting [7]) and in assay [2] (setting [8]) was over 50 µM each time.

`O=C(Nc1ccc(=O)n(CC(F)(F)F)n1)c1cc(Cl)c(Cl)s1` [Compound 21d]: the IC50 in assay [1] (setting [11]) is 16.7 µM; in assay [2] (FL-SMARCA4 IC50), over 50 µM.

With `CCn1cc(NC(=O)c2c[nH]c3ccccc23)ccc1=O` [Compound 22a], the IC50 in assay [1] (setting [5]) and in assay [2] (setting [6]) was over 50 µM throughout.

For the compound `CC(=O)Nc1ccc(C(=O)Nc2cc(F)c(=O)n(CCF)c2)cc1Cl` [Compound 22b], the IC50 in assay [1] (setting [7]) and in assay [2] (setting [8]) was over 50 µM in each case.

Turning to `CCCn1nc(NC(=O)c2cc(Cl)c(Cl)s2)ccc1=O` [Compound 22d], the IC50 was 6.38 µM in assay [1] (setting [11]) and 28.9 µM in assay [2] (FL-SMARCA4 IC50).

With `CCn1cc(NC(=O)c2cnc3ncccn23)ccc1=O` [Compound 23a], the IC50 in assay [1] (setting [5]) and in assay [2] (setting [6]) was over 50 µM each time.

In the case of `NS(=O)(=O)c1ccc(C(=O)Nc2cc(F)c(=O)n(CCF)c2)cc1Cl` [Compound 23b], the IC50 in assay [1] (setting [7]) and in assay [2] (setting [8]) was over 50 µM each time.

With `O=C(Nc1cc(F)c(=O)n(CC(F)F)c1)c1cc(C#Cc2ccncc2)cs1` [Compound 23c], the figures for the IC50 in assay [1] (setting [9]) and in assay [2] (setting [10]) were 0.173 µM and 0.219 µM, respectively.

Consider `O=C(Nc1ccc(=O)n(CC(F)(F)F)n1)c1cnc(Cl)s1` [Compound 23d], for which the IC50 in assay [1] (setting [11]) was 12.5 µM; in assay [2] (FL-SMARCA4 IC50) it was 15.3 µM.

Turning to `CCn1cc(NC(=O)c2c[nH]c3c(Cl)cccc23)ccc1=O` [Compound 24a], the IC50 in assay [1] (setting [5]) and in assay [2] (setting [6]) was over 50 µM each time.

For the compound `O=C(Nc1cc(F)c(=O)n(CC(F)F)c1)c1cc(CC(F)(F)F)c(Cl)s1` [Compound 24c], the IC50 stood at 11.3 µM in assay [1] (setting [9]) and 38.7 µM in assay [2] (setting [10]).

As to `CCn1cc(NC(=O)c2cc(Cl)c(Cl)s2)c(Cl)cc1=O` [Compound 24d], the IC50 in assay [1] (setting [11]) was 18.4 µM; in assay [2] (FL-SMARCA4 IC50) it was over 50 µM.

`CCn1cc(NC(=O)c2cccc(Cl)n2)ccc1=O` [Compound 25a]: the IC50 in assay [1] (setting [5]) and in assay [2] (setting [6]) was over 50 µM in each case.

Turning to `CCn1c(C)c(NC(=O)c2cc(Cl)c(Cl)s2)ccc1=O` [Compound 25d], the IC50 in assay [1] (setting [11]) and in assay [2] (FL-SMARCA4 IC50) was over 50 µM throughout.

On to `CCn1cc(NC(=O)c2ccc(F)s2)ccc1=O` [Compound 26], for which the IC50 is 19.6 µM in assay [1] (setting [3]) and over 50 µM in assay [2] (setting [4]).

On to `CCn1cc(NC(=O)c2ccc3ccccc3n2)ccc1=O` [Compound 26a], for which the IC50 in assay [1] (setting [5]) and in assay [2] (setting [6]) was over 50 µM each time.

For `O=C(Nc1cc(C#CC(F)(F)F)c(=O)n(CC(F)F)c1)c1cc(F)c(Cl)s1` [Compound 26c], the IC50 in assay [1] (setting [9]) worked out at 5.41 µM; in assay [2] (setting [10]) it was 6.27 µM.

Take `CCn1cc(NC(=O)c2cc(Cl)c(Cl)s2)c(C)cc1=O` [Compound 26d]: the IC50 in assay [1] (setting [11]) and in assay [2] (FL-SMARCA4 IC50) was over 50 µM each time.

As for `CCn1cc(NC(=O)c2cn(C)c3c(Cl)cccc23)ccc1=O` [Compound 27a], the IC50 in assay [1] (setting [5]) and in assay [2] (setting [6]) was over 50 µM in each case.

With `Cn1cnc(-c2cc(NC(=O)c3sc(C(F)(F)F)cc3Cl)cn(CC(F)F)c2=O)c1` [Compound 27c], the IC50 in assay [1] (setting [9]) and in assay [2] (setting [10]) was over 50 µM each time.

As to `CCn1c(Cl)c(NC(=O)c2cc(Cl)c(Cl)s2)ccc1=O` [Compound 27d], the IC50 in assay [1] (setting [11]) and in assay [2] (FL-SMARCA4 IC50) was over 50 µM throughout.

As for `CCn1cc(NC(=O)c2cccc(C)n2)ccc1=O` [Compound 28a], the IC50 in assay [1] (setting [5]) and in assay [2] (setting [6]) was over 50 µM throughout.

On to `NCCCn1cc(NC(=O)c2cc(F)c(Cl)s2)cc(F)c1=O` [Compound 28c], for which the IC50 in assay [1] (setting [9]) and in assay [2] (setting [10]) was over 50 µM in each case.

As to `CCc1cc(=O)n(CC)cc1NC(=O)c1cc(Cl)c(Cl)s1` [Compound 28d], the IC50 in assay [1] (setting [11]) and in assay [2] (FL-SMARCA4 IC50) was over 50 µM in each case.

`CCn1cc(NC(=O)c2cnc3c(Cl)cccn23)ccc1=O` [Compound 29a]: the IC50 in assay [1] (setting [5]) and in assay [2] (setting [6]) was over 50 µM in each case.

In the case of `CN1CCC(C#Cc2cc(C(=O)Nc3cc(F)c(=O)n(CC(F)F)c3)sc2Cl)CC1` [Compound 29c], the IC50 in assay [1] (setting [9]) is 25.4 µM; in assay [2] (setting [10]) it was 41.4 µM.

For the compound `CCn1c(F)c(NC(=O)c2cc(Cl)c(Cl)s2)ccc1=O` [Compound 29d], the IC50 in assay [1] (setting [11]) and in assay [2] (FL-SMARCA4 IC50) was over 50 µM in each case.

Consider `CCn1cc(NC(=O)c2ccccn2)ccc1=O` [Compound 30a], for which the IC50 in assay [1] (setting [5]) and in assay [2] (setting [6]) was over 50 µM in each case.

For `O=C(Nc1cc(-c2ncco2)c(=O)n(CC(F)F)c1)c1sc(C(F)(F)F)cc1Cl` [Compound 30c], the IC50 in assay [1] (setting [9]) and in assay [2] (setting [10]) was over 50 µM each time.

For `CCc1c(NC(=O)c2cc(Cl)c(Cl)s2)ccc(=O)n1CC` [Compound 30d], the IC50 in assay [1] (setting [11]) and in assay [2] (FL-SMARCA4 IC50) was over 50 µM each time.

Turning to `CCn1cc(NC(=O)n2ncc3ccccc32)ccc1=O` [Compound 31a], the IC50 in assay [1] (setting [5]) and in assay [2] (setting [6]) was over 50 µM in each case.

In the case of `O=C(Nc1cc(-c2c[nH]cn2)c(=O)n(CC(F)F)c1)c1sc(C(F)(F)F)cc1Cl` [Compound 31c], the IC50 in assay [1] (setting [9]) and in assay [2] (setting [10]) was over 50 µM throughout.

For the compound `CCn1cc(NC(=O)c2cc(Cl)c(Cl)s2)c(F)cc1=O` [Compound 31d], the IC50 was 48.1 µM in assay [1] (setting [11]) and over 50 µM in assay [2] (FL-SMARCA4 IC50).

As to `CCn1nc(C(=O)Nc2ccc(=O)n(CC)c2)cc1C` [Compound 32], the IC50 in assay [1] (setting [3]) and in assay [2] (setting [4]) was over 50 µM in each case.

Regarding `CCn1cc(NC(=O)c2nc3cc(Cl)c(F)cc3[nH]2)ccc1=O` [Compound 32a], the IC50 in assay [1] (setting [5]) and in assay [2] (setting [6]) was over 50 µM throughout.

For `NCCn1cc(NC(=O)c2cc(F)c(Cl)s2)cc(F)c1=O` [Compound 32c], the IC50 in assay [1] (setting [9]) amounted to 5.67 µM; in assay [2] (setting [10]), 12.5 µM.

On to `Cc1cc(=O)[nH]cc1NC(=O)c1ccc(C(F)(F)F)nc1C` [Compound 32d], for which the IC50 in assay [1] (setting [11]) and in assay [2] (FL-SMARCA4 IC50) was over 50 µM each time.

In the case of `CCn1cc(NC(=O)c2cc(C)sc2C)ccc1=O` [Compound 33], the IC50 in assay [1] (setting [3]) and in assay [2] (setting [4]) was over 50 µM throughout.

Take `CCn1cc(NC(=O)c2ccc(Cl)c(Cl)n2)ccc1=O` [Compound 33a]: the IC50 in assay [1] (setting [5]) and in assay [2] (setting [6]) was over 50 µM in each case.

With `O=C(Nc1cc(F)c(=O)n(CC(F)F)c1)c1cnc(C#Cc2ccncc2)s1` [Compound 33c], the IC50 turned out to be 8.9 µM in assay [1] (setting [9]) and 8.15 µM in assay [2] (setting [10]).

Values taken from US20220356174A1, “PYRIDIN-2-ONE COMPOUNDS USEFUL AS SMARCA2 ANTAGONISTS” (Epizyme, Inc., priority 2018, published 2022).
